Measurements taken from publication PMC7899551, “Phase 1 study of Z-endoxifen in patients with advanced gynecologic, desmoid, and hormone receptor-positive solid tumors” (Oncotarget, 2021).
Read-outs that look alike come from different tables or passages of the source.

Experiment: Plasma pharmacokinetics of Z-endoxifen (HPLC assay, non-compartmental analysis)
Assay type: in vivo, human
Settings: human, plasma, po
Experimental: This was an open-label trial of Z-endoxifen in patients with advanced solid tumors (https://clinicaltrials.gov/ identifier: NCT01273168). Z-endoxifen-HCl was supplied by the Pharmaceutical Management Branch, National Cancer Institute, as 20 and 40 mg capsules; agent was administered orally once daily on a continuous schedule in 28-day cycles with a starting dose of 20 mg/day taken either 1 hour before or 2 hours after meals. Dose escalation followed a traditional 3+3 design in which patients were dose-escalated to the next dose level (DL) in cohorts of 3 patients until dose-limiting toxicity (DLT) was observed. DLT was defined as an adverse event that occurred during cycle 1, was thought to be related to study drug administration, and met one of the following criteria: grade ≥ 3 non-hematologic toxicities (except diarrhea, nausea and vomiting, alopecia, rising creatinine or electrolyte toxicities that resolved within 24 hours, or intolerable estrogen withdrawal symptoms) or grade ≥ 3 hematologic toxicities (except neutropenia lasting less than 5 days, lymphopenia, or anemia). Eight dose levels (DL1-8) were examined: 20, 40, 60, 100, 140, 200, 280, and 360 mg, respectively. Two patients at DL8 received the free base form of Z-endoxifen on day 1 rather than the hydrochloride salt to assess the pharmacokinetics of that formulation.
A 3-mL blood sample was collected in a K2 EDTA tube on day 1 of cycle 1 before drug administration and at the following times post-first dose: 0.5, 1, 2, 3, 4, 6, 8, and 24 hours. Samples were collected at the same time points on day 28 of cycle 1 for DL1-6 until a protocol amendment eliminated the requirement for these samples at the higher dose levels. Samples were wrapped in aluminum foil after collection to protect from light exposure. A 10-mL aliquot of urine was collected before agent administration on cycle 1 day 1, for 24 hours after dosing on day 1, and before drug administration on cycle 2 day 1; samples were refrigerated prior to analysis.
Plasma and urine concentrations of Z- and E-endoxifen were measured using a validated, post-column fluorescence derivatization HPLC assay. Non-compartmental pharmacokinetic parameters were calculated using WinNonlin version 7.0 (Pharsight Corp., Mountainview, CA, USA). A 2 μM Cmax target was established for day 28 plasma concentration. The amount of Z-endoxifen excreted in urine was measured over a 24-hour collection period.

SMILES: CC/C(=C(\c1ccc(O)cc1)c1ccc(OCCNC)cc1)c1ccccc1 [Z-endoxifen]
- Cmax (20 mg/day, DL1 20 mg/day oral, day 28, mean, read-out: Cmax, Mean): 286 ng/mL
- Tmax (20 mg/day, DL1 20 mg/day oral, day 28, mean, read-out: Tmax, Mean): 0.7 h
- AUC(0-t) (40 mg, DL2 40 mg oral, day 1, individual patients, read-out: AUC(0-24h)): 1290 ng·h/mL
- Cmax (40 mg, DL2 40 mg oral, day 1, individual patients, read-out: Cmax): 83.6 ng/mL
- AUC(0-t) (40 mg, DL2 40 mg oral, day 1, mean, read-out: AUC(0-24h), Mean): 1650 ng·h/mL
- concentration at 24 h (40 mg, DL2 40 mg oral, day 1, mean, read-out: C24h, Mean): 52.5 ng/mL
- Cmax (40 mg, DL2 40 mg oral, day 1, mean, read-out: Cmax, Mean): 112 ng/mL
- AUC(0-t) (40 mg/day, DL2 40 mg/day oral, day 28, individual patients, read-out: AUC(0-24h)): 5570 ng·h/mL
- half-life (40 mg/day, DL2 40 mg/day oral, day 28, individual patients, read-out: Adjusted Half-Life (converted)): 39.3 h
- concentration at 24 h (40 mg/day, DL2 40 mg/day oral, day 28, individual patients, read-out: C24h): 136 ng/mL
- Cmax (40 mg/day, DL2 40 mg/day oral, day 28, individual patients, read-out: Cmax): 321 ng/mL
- AUC(0-t) (40 mg/day, DL2 40 mg/day oral, day 28, mean, read-out: AUC(0-24h), Mean): 4760 ng·h/mL
- concentration at 24 h (40 mg/day, DL2 40 mg/day oral, day 28, mean, read-out: C24h, Mean): 147 ng/mL
- Cmax (40 mg/day, DL2 40 mg/day oral, day 28, mean, read-out: Cmax, Mean): 258 ng/mL
- Tmax (40 mg/day, DL2 40 mg/day oral, day 28, mean, read-out: Tmax, Mean): 3.3 h
- AUC(0-t) (60 mg, DL3 60 mg oral, day 1, individual patients, read-out: AUC(0-24h)): 1620 ng·h/mL
- concentration at 24 h (60 mg, DL3 60 mg oral, day 1, individual patients, read-out: C24h): 89.7 ng/mL
- Cmax (60 mg, DL3 60 mg oral, day 1, individual patients, read-out: Cmax): 89.7 ng/mL
- AUC(0-t) (60 mg, DL3 60 mg oral, day 1, mean, read-out: AUC(0-24h), Mean): 2140 ng·h/mL
- concentration at 24 h (60 mg, DL3 60 mg oral, day 1, mean, read-out: C24h, Mean): 82.7 ng/mL
- Cmax (60 mg, DL3 60 mg oral, day 1, mean, read-out: Cmax, Mean): 122 ng/mL
- Tmax (60 mg, DL3 60 mg oral, day 1, mean, read-out: Tmax, Mean): 12 h
- AUC(0-t) (60 mg/day, DL3 60 mg/day oral, day 28, mean, read-out: AUC(0-24h), Mean): 8080 ng·h/mL
- concentration at 24 h (60 mg/day, DL3 60 mg/day oral, day 28, mean, read-out: C24h, Mean): 345 ng/mL
- Cmax (60 mg/day, DL3 60 mg/day oral, day 28, mean, read-out: Cmax, Mean): 417 ng/mL
- Tmax (60 mg/day, DL3 60 mg/day oral, day 28, mean, read-out: Tmax, Mean): 10.8 h
- AUC(0-t) (100 mg, DL4 100 mg oral, day 1, individual patients, read-out: AUC(0-24h)): 4640 ng·h/mL
- concentration at 24 h (100 mg, DL4 100 mg oral, day 1, individual patients, read-out: C24h): 133 ng/mL
- Cmax (100 mg, DL4 100 mg oral, day 1, individual patients, read-out: Cmax): 264 ng/mL
- Tmax (100 mg, DL4 100 mg oral, day 1, individual patients, read-out: Tmax): 1 h
- AUC(0-t) (100 mg, DL4 100 mg oral, day 1, mean, read-out: AUC(0-24h), Mean): 5000 ng·h/mL
- concentration at 24 h (100 mg, DL4 100 mg oral, day 1, mean, read-out: C24h, Mean): 155 ng/mL
- Cmax (100 mg, DL4 100 mg oral, day 1, mean, read-out: Cmax, Mean): 296 ng/mL
- Tmax (100 mg, DL4 100 mg oral, day 1, mean, read-out: Tmax, Mean): 4.3 h
- AUC(0-t) (100 mg/day, DL4 100 mg/day oral, day 28, individual patients, read-out: AUC(0-24h)): 13300 ng·h/mL
- half-life (100 mg/day, DL4 100 mg/day oral, day 28, individual patients, read-out: Adjusted Half-Life (converted)): 36.8 h
- concentration at 24 h (100 mg/day, DL4 100 mg/day oral, day 28, individual patients, read-out: C24h): 428 ng/mL
- Cmax (100 mg/day, DL4 100 mg/day oral, day 28, individual patients, read-out: Cmax): 1300 ng/mL
- Tmax (100 mg/day, DL4 100 mg/day oral, day 28, individual patients, read-out: Tmax): 2 h
- AUC(0-t) (100 mg/day, DL4 100 mg/day oral, day 28, mean (one patient), read-out: AUC(0-24h), Mean): 13300 ng·h/mL
- half-life (100 mg/day, DL4 100 mg/day oral, day 28, mean (one patient), read-out: Adjusted Half-Life, Mean (converted)): 36.8 h
- concentration at 24 h (100 mg/day, DL4 100 mg/day oral, day 28, mean (one patient), read-out: C24h, Mean): 428 ng/mL
- Cmax (100 mg/day, DL4 100 mg/day oral, day 28, mean, read-out: Cmax, Mean): 1010 ng/mL
- Tmax (140 mg, DL5 140 mg oral, day 1, individual patients, read-out: Tmax): 3 h
- AUC(0-t) (140 mg, DL5 140 mg oral, day 1, mean, read-out: AUC(0-24h), Mean): 9760 ng·h/mL
- concentration at 24 h (140 mg, DL5 140 mg oral, day 1, mean, read-out: C24h, Mean): 311 ng/mL
- Cmax (140 mg, DL5 140 mg oral, day 1, mean, read-out: Cmax, Mean): 610 ng/mL
- Tmax (140 mg, DL5 140 mg oral, day 1, mean, read-out: Tmax, Mean): 4.3 h
- AUC(0-t) (140 mg/day, DL5 140 mg/day oral, day 28, individual patients, read-out: AUC(0-24h)): 18200 ng·h/mL
- half-life (140 mg/day, DL5 140 mg/day oral, day 28, individual patients, read-out: Adjusted Half-Life (converted)): 33.1 h
- concentration at 24 h (140 mg/day, DL5 140 mg/day oral, day 28, individual patients, read-out: C24h): 598 ng/mL
- Cmax (140 mg/day, DL5 140 mg/day oral, day 28, individual patients, read-out: Cmax): 973 ng/mL
- Tmax (140 mg/day, DL5 140 mg/day oral, day 28, individual patients, read-out: Tmax): 1 h
- AUC(0-t) (140 mg/day, DL5 140 mg/day oral, day 28, mean, read-out: AUC(0-24h), Mean): 17400 ng·h/mL
- half-life (140 mg/day, DL5 140 mg/day oral, day 28, mean, read-out: Adjusted Half-Life, Mean (converted)): 30.6 h
- concentration at 24 h (140 mg/day, DL5 140 mg/day oral, day 28, mean, read-out: C24h, Mean): 563 ng/mL
- Cmax (140 mg/day, DL5 140 mg/day oral, day 28, mean, read-out: Cmax, Mean): 1110 ng/mL
- AUC(0-t) (200 mg, DL6 200 mg oral, day 1, individual patients, read-out: AUC(0-24h)): 6340 ng·h/mL
- concentration at 24 h (200 mg, DL6 200 mg oral, day 1, individual patients, read-out: C24h): 279 ng/mL
- Tmax (200 mg, DL6 200 mg oral, day 1, individual patients, read-out: Tmax): 2 h
- AUC(0-t) (200 mg, DL6 200 mg oral, day 1, mean, read-out: AUC(0-24h), Mean): 9220 ng·h/mL
- concentration at 24 h (200 mg, DL6 200 mg oral, day 1, mean, read-out: C24h, Mean): 336 ng/mL
- Cmax (200 mg, DL6 200 mg oral, day 1, mean, read-out: Cmax, Mean): 517 ng/mL
- half-life (200 mg/day, DL6 200 mg/day oral, day 28, individual patients, read-out: Adjusted Half-Life (converted)): 34.8 h
- AUC(0-t) (200 mg/day, DL6 200 mg/day oral, day 28, mean, read-out: AUC(0-24h), Mean): 30800 ng·h/mL
- concentration at 24 h (200 mg/day, DL6 200 mg/day oral, day 28, mean, read-out: C24h, Mean): 1070 ng/mL
- Cmax (200 mg/day, DL6 200 mg/day oral, day 28, mean, read-out: Cmax, Mean): 1640 ng/mL
- Cmax (280 mg, DL7 280 mg oral, day 1, individual patients, read-out: Cmax): 888 ng/mL
- Tmax (280 mg, DL7 280 mg oral, day 1, individual patients, read-out: Tmax): 3 h
- AUC(0-t) (280 mg, DL7 280 mg oral, day 1, mean, read-out: AUC(0-24h), Mean): 15000 ng·h/mL
- concentration at 24 h (280 mg, DL7 280 mg oral, day 1, mean, read-out: C24h, Mean): 468 ng/mL
- Cmax (280 mg, DL7 280 mg oral, day 1, mean, read-out: Cmax, Mean): 930 ng/mL
- Tmax (360 mg, DL8 360 mg oral, day 1, individual patients, read-out: Tmax): 2 h
- AUC(0-t) (360 mg, DL8 360 mg oral, day 1, mean (excluding patients 35 and 36), read-out: AUC(0-24h), Mean): 20500 ng·h/mL
- concentration at 24 h (360 mg, DL8 360 mg oral, day 1, mean (excluding patients 35 and 36), read-out: C24h, Mean): 676 ng/mL
- Cmax (360 mg, DL8 360 mg oral, day 1, mean (excluding patients 35 and 36), read-out: Cmax, Mean): 1310 ng/mL
- Tmax (360 mg, DL8 360 mg oral, day 1, mean (excluding patients 35 and 36), read-out: Tmax, Mean): 3.9 h
- AUC(0-t) (360 mg, HCl salt, 360 mg oral, day 2 (after free base on day 1), mean of patients 35 and 36, read-out: AUC(0–24 h), Mean): 41600 ng·h/mL
- concentration at 24 h (360 mg, HCl salt, 360 mg oral, day 2 (after free base on day 1), mean of patients 35 and 36, read-out: C24 h, Mean): 1470 ng/mL
- concentration at 24 h (360 mg, HCl salt, 360 mg oral, day 2 (after free base on day 1), patients 35 and 36 individually, read-out: C24 h): 827 ng/mL
